According to patent US20230118517A1, “METHODS OF TREATING MULTIPLE MYELOMA” (Seagen Inc., priority 2020, published 2023):

Assays:
[1] = Antitherapeutic antibody (ATA) assessment in patient serum; assay type: in vivo, human; details: all samples tested
Source text: A qualified electrochemiluminescence assay were used to assess ATA.

[2] = system: relapsed or refractory multiple myeloma (RRMM); assay: Clinical antitumor activity (IMWG response, serum free light chain); assay type: in vivo, human
Description: Response assessment included SPEP/immunofixation, UPEP/immunofixation (in patients with a baseline urine M protein ≥200 mg/24 hour or for assessment of VGPR or better), SFLC, quantitative immunoglobulins, and plasmacytoma evaluation by imaging (at baseline, every 4 cycles, and at additional time points if clinically indicated). These samples were collected for local assessment. In addition, blood were analyzed in the central laboratory using a modified SPEP for patients with IgG myeloma.
The determination of antitumor activity were based on response assessments made according to the 2016 IMWG Criteria (Kumar et al., Lancet Oncol 17(8): e328-46, 2016) and treatment decisions by the investigator were based on these assessments. Clinical response of sCR, CR, VGPR, PR, SD, and PD were determined at each assessment based on local laboratory (and the modified SPEP run by the central laboratory for patients with IgG MM), radiological, and clinical evaluations. Progressive disease was based on IMWG 2016 criteria and/or clinical disease progression per investigator. All IMWG responses were confirmed responses. When applicable, determination of immunophenotypic CR, MRD status, and minimal response were made per the IMWG 2016 criteria.
Kappa and lambda free light chains were quantified in serum of patients as surrogate markers of antitumor activity.
A patient was determined to have an OR if, based on the 2016 IMWG uniform response criteria, they achieve a sCR, CR, VGPR, or a PR. The ORR is defined as the proportion of patients with an OR per investigator. Patients whose disease response could not be evaluated per the 2016 IMWG uniform response criteria were scored as Not Evaluable for calculating the ORR.

[3] = system: NF-κB p65; assay: NF-κB p65 activity ELISA on nuclear extract; assay type: cell-based; details: NCI-H929, 20 μg/mL SEA-BCMA, 0.2 μM Nirogacestat
Description: The secondary mechanism of action of SEA-BCMA is to block BCMA proliferative cell signaling. Increased BCMA from GSI treatment is expected to induce increased BCMA signaling. Therefore, the block of this enhanced signaling by SEA-BCMA was tested. BCMA-expressing NCI-H929 cells were serum-starved with and without 0.2 μM Nirogacestat (purchased from SelleckChem) for 16 hrs. Cells were then bound with and without 20 μg/mL SEA-BCMA and incubated with and without 1 μg/ml recombinant human APRIL (R&D Systems) for 20 minutes at 37° C. in the presence or absence of 0.2 μM Nirogacestat. 1 μg of nuclear extract was assayed in duplicate for NF-κB p65 activity by ELISA (TransAM NFκB Chemi p65, Active Motif).

[4] = system: MM1R myeloma target cells; assay: PBMC-mediated MM1R target cell killing, first experiment (48 hrs, 3 μM pomalidomide); assay type: cell-based; details: combined with Pomalidomide, benchmarked against elotuzumab and WT-BCMA, N=2
Description: (§1) Experiments were performed to test whether SEA-BCMA combines effectively with pomalidomide in vitro by combining PBMC effector cells with MM1R target cells treated with both pomalidomide and SEA-BCMA or antibody controls. The first experiment (FIG. 12A) benchmarks against MM standard of care elotuzumab and nonfucosylated parent BCMA antibody. The second experiment (FIG. 12B) benchmarks against MM standard of care daratumumab. MM1R target cells express 15,000 copies of BCMA, 12,000 copies of CS1 (elotuzumab target), and 36,000 copies of CD38 (daratumumab target).
In the first experiment (FIG. 12A), normal donor PBMCs of the FcγRIII V/F genotype were mixed with CFSE (Invitrogen cat #V12883) labeled MM1R myeloma target cells at an effector-to-target cell ratio of 10:1. The mixture was treated with a dose range of the following antibodies: SEA-BCMA, elotuzumab, WT-BCMA (fucosylated parent Ab), or non-binding hIgG1k antibody control (Sigma cat #15154) with or without 3 μM pomalidomide (APEx Bio, cat #A4211). After 48 hrs, the % live MM1R cells were then determined using the viability dye 7-AAD (BD Biosciences, cat #559925) by flow cytometry.

[5] = system: MM1R myeloma target cells; assay: PBMC-mediated MM1R target cell killing, second experiment (PBMC pretreated 5 days, 0.5 μM pomalidomide); assay type: cell-based; details: combined with Pomalidomide, benchmarked against daratumumab, N=2
Description: as §1
In the second experiment (FIG. 12B), normal donor PBMCs of the FcγRIII V/F genotype were treated with or without 0.5 μM pomalidomide (APEx Bio, cat #A4211) for 5 days. The resulting PBMCs were then washed and mixed with CFSE (Invitrogen cat #V12883) labeled MM1R myeloma target cells at an effector-to-target cell ratio of 10:1. The mixture was then treated with a dose range of the following antibodies: SEA-BCMA, daratumumab, or non-binding hIgG1k antibody control (Sigma cat #15154) with or without 0.5 μM pomalidomide (APEx Bio, cat #A4211) and incubated overnight. Percentage live MM1R cells were then determined using the viability dye 7-AAD (BD Biosciences, cat #559925) by flow cytometry.

[6] = Pharmacokinetic analysis of SEA-BCMA serum concentration in patients

SEA-BCMA: non-fucosylated monoclonal anti-BCMA antibody having heavy chain SEQ ID NO: 13 and light chain SEQ ID NO: 15
anti-SEA-BCMA antibodies [1]: No anti-SEA-BCMA antibodies were found
response by dose level ([2]; 1600 mg per dose once every 2 weeks vs 100-800 mg): highest overall confirmed response rate
response assessment ([2]; Patient A, 1600 mg every two weeks, 7 prior lines): very good partial response (VGPR)
time to which low level of sFLC was maintained ([2]; Patient A, 1600 mg every two weeks, after the first dose): ≥ 40 days
response ([2]; all dose levels (100-1600 mg), after a minimum of 3 cycles of treatment): stable disease was observed
patients with confirmed very good partial response (VGPR) ([2]; among 3 response evaluable patients, 1600 mg): 1 patient
response ([2]; combination with dexamethasone, SEA-BCMA Day 1 and 15, dexamethasone Day 1, 8, 15, 22 of 28-day cycle): Confirmed responses were also observed
response ([2]; intensive dosing: 1600 mg q1wk for 8 doses, then once every two weeks): Confirmed responses were also observed
decrease of serum free light chain (sFLC) level ([2]; patient (Patient A), one week after first 1600 mg dose): about 90%
response ([2]; patient, 200 mg escalated to 1600 mg, 8 prior lines): maintaining stable disease even 10 months after commencement of treatment
block of Nirogacestat-increased NF-κB signaling [3]: partially blocked
MM1R target cell killing [4]: greater MM1R target cell killing
MM1R target cell killing [5]: greater MM1R target cell killing
time at which PK reaches steady state ([6]; Q2W dosing): steady state at cycle 3
accumulation at steady state ([6]; after Q2W dosing): approximately 70%
